Source: patent publication US8114872B2, “Triazolyl aminopyrimidine compounds” (Eli Lilly and Company, priority 2007, dated 2012)
Read-outs that look alike come from different tables or passages of the source.

Tests used:
[1] = system: HeLa Cells; test: pHH3(S10), Mitotic Cells, and DNA Content Assays; type: cell-based; conditions: Homo sapiens, 23 hours exposure
Experimental: HeLa Cells are plated at 200 cells/well in 96 well […] Dickinson BIOCOAT™ plates, and are incubated in MEM (Minimum Essential Medium) with 10% FBS (Fetal Bovine Serum) in 37° C., 5% CO2 for 24 hours. Cells are treated by adding compound (in 0.25% DMSO) to the medium, dosing at 10 points across the range […] to 0.0098 μM. After 23 hours exposure to the compounds, cells are fixed, for example with the PREFER™ fixative for 30 min then are permeabilized with 0.1% TRITON® X100 in phosphate buffered saline (PBS) solution for 15 min. Cells are washed 3 times with PBS then digested with 50 μg/mL RNAse. Primary antibody, phosphohistone H3, is added at 1:500 in PBS with 1% bovine serum albumin (BSA) to the cells over night at 4° C. After 3 PBS washes, cells are incubated with Alexa488 labeled secondary antibody for 1 hour at RT. Again they are washed 3 times with PBS, and then 15 μM propidium iodide is added for 30 min to stain nuclei. Fluorescence Plates are scanned with ACUMEN EXPLORER™ [Laser-scanning fluorescence microplate cytometer (comprising of 488 nm argon ion laser excitation and multiple photomultiplier tube detection), manufactured by TTP LABTECH LTD] to measure anti-phosphohistone H3 Serine 10, DNA content and mitotic cells as measured by DNA condensation. Image analysis are based on cellular fluorescent signals for identifying cells in different subpopulations. pHH3(S10) positive cells are identified by mean intensity at 500-530 nm above the threshold. Total intensity at 655-705 nm from propidium iodide/DNA is used to identify individual cells (cells with DNA content from 2N to 4N) and subpopulations in cell cycle (2N cells, 4N cells). Peak intensity at 575-640 nm is used to identify DNA condensation that is used as the marker to identify mitotic cells among 4N cells. Assay outputs are percentage of each identified subpopulations, % pHH3, % 2N, % 4N, % mitotic and total cell number. The EC50 is determined by curve fitting to a four parameter logistic for each output using ACTIVITY BASE™.

[2] = molecular target: T1, Plk1-Flag-His6 tag fusion enzyme (Human Plk1) (Homo sapiens, UniProt P53350); test: Plk1 Inhibition Assay (33P-ATP filter plate kinase reaction, GST-Cdc25C(1-206) substrate); type: biochemical; conditions: 5.0 μM ATP, RT 60 min; MSR 3.6; racemate; read-out: Plk1 IC50 (absolute IC50)
T1 construct: made in house; host or cells: Sf9 insect cells (baculovirus, pFastBac vector); substrate in E. coli BL21 (pGEX-2T)
Description: Human Plk1 cDNA may be directly linked at one of its termini with a polynucleotide sequence expressing a His6 tag, such as the C-terminal FLAG-His6 tag, and inserted into an appropriate expression vector, such as a pFastBac™ vector (Invitrogen) and transfected into an appropriate system, such as baculovirus similar to what has been reported by Yue-Wei Qian, et al., Science, 282, 1701 (1998) for xPlk1. If a viral expression system is used, then the virus (e.g., baculovirus bearing a Plk1-Flag-His6 tag polynucleotide construct) is infected into a culture of a suitable host cell, such as Sf9 cells. […]
Plk1 kinase reactions contain Plk1-Flag-His6 tag fusion enzyme (0.2 ng/μL) in a buffer containing 50 mM HEPES, pH 7.3, 1.0 mM dithiothreitol, 5.0 μM ATP, 10 mM MgCl2, 0.01% TRITON® X-100, 0.4 μCi ^33P-ATP, and 0.06 μg/μL GST-Cdc25c (1-206) peptide. […] Wells are dried before addition of 40 μL of MicroScintTM20 (Packard) and then counted on a Wallac MICROBETA® Jet. The percentage inhibition values from the 10-point concentration response data are subsequently analyzed, for example, using ACTIVITY BASE™ software (IDBS), using a 4-parameter logistic equation. Absolute IC50 values are calculated from the resulting curve fit.

[3] = system: HCT116 cells; test: Antiproliferative Assay (Alamar Blue); type: cell-based; conditions: Homo sapiens, HCT-116, e.g. 72 hours exposure, n=2, MSR 3.1, racemate, read-out: average IC50 (cell proliferation)
Experimental: The effects of compounds on cell proliferation can be determined using cells and cell proliferation methods well-known in the art (Robert C. Squatrito et al., Gynecological Oncology, 58, 101-105, (1995)). For example, HCT116 cells, which may be obtained from the American Type Culture Collection, may be seeded at ˜2000 cells/well in 96-well plates and allowed to attach overnight in a humidified CO2 incubator at 37° C. Following the 20-24 hour incubation, half-log serially diluted compounds are added and the plates are returned to the incubator. After an appropriate length of exposure (e.g., 72 hours), cell proliferation is estimated using well-known methods. In one method, 10 μL of a tetrazolium salt, such as Alamar Blue™ is added to the cell plates. After an appropriate exposure to the dye, fluorescence (530 nm excitation, 580 nm emission) is determined.

[4] = in man, cited from earlier work
[5] = system: HCT116, A549 and NCIH460 murine xenografts; conditions: cited from earlier work

T1 sequence (P53350 whole entry, the tested form may be a part): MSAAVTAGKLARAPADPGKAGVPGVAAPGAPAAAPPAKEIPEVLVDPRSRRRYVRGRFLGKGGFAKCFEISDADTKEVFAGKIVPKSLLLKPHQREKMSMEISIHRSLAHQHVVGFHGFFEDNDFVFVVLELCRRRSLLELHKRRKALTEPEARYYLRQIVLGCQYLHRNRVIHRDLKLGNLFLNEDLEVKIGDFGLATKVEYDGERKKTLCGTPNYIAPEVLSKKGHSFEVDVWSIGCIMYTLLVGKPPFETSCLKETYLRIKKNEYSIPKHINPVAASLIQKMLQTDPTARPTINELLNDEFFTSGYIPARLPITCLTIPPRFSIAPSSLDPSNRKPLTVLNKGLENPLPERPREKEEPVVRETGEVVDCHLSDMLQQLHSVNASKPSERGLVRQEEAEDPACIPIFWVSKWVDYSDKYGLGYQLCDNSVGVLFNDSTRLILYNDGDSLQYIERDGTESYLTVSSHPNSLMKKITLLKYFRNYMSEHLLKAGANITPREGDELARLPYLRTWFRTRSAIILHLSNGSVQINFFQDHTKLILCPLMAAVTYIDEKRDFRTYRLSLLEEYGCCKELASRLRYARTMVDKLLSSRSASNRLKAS

| EC50 ([1]; MSR 2.4, racemate, read-out: DNA content EC50) [nM] | EC50 ([1]; MSR 2.5, racemate, read-out: mitotic EC50) [nM] | EC50 ([1]; MSR 2.6, racemate, read-out: pHH3(s10) EC50) [nM] | IC50 [2] [nM] | IC50 [3] [nM] | Structure (SMILES) | dose-limiting toxicity ([4]; phase II clinical trials) | clearance (CL) [4] [mL/min] | activity in preclinical xenograft models [5] |
| --- | --- | --- | --- | --- | --- | --- | --- | --- |
| 30 | 23 | 25 | 12 | 31 | CC(N)c1cnc(F)cc1-c1cccc2cc(-c3nc(NCCn4ccnn4)ncc3F)sc12 (racemic) [Example 41, N-(2-(1H-1,2,3-Triazol-1-yl)ethyl)-4-(7-(5-(1-aminoethyl)-2-fluoropyridin-4-yl)benzo[b]thiophen-2-yl)-5-fluoropyrimidin-2-amine] |  |  |  |
|  |  |  |  |  | CC[C@@H]1C(=O)N(C)c2cnc(Nc3ccc(C(=O)NC4CCN(C)CC4)cc3OC)nc2N1C1CCCC1 [BI-2536] | dose limited by myelosupression | > 1000 | demonstrated activity |
